Results published in ChEMBL document CHEMBL3826905, “1'-Homonucleosides and their structural analogues: A review” (Eur J Med Chem, 2016).
≈ marks a conversion by molar mass, not a printed value.

What was measured:
[1] = Inhibition of Escherichia coli methionyl-tRNA synthetase assessed as decrease in [35S]methionyl-tRNA generation
[2] = Cytostatic activity against mouse L1210/0 cells; format: functional, cell-based; conditions: Mus musculus, L1210/0
MOLT-4 = assay: Cytostatic activity against human Molt4/C8 cells; format: functional, cell-based; conditions: Homo sapiens, MOLT-4
CCRF-CEM = assay: Cytostatic activity against human CEM/0 cells; format: functional, cell-based
Influenza A virus = assay: Antiviral activity against Influenza A virus; format: functional, organism-based
Cytomegalovirus [3] = assay: Antiviral activity against Cytomegalovirus Davis 07/1 infected in HEL cells; format: functional, organism-based; conditions: Human betaherpesvirus 5, Davis 07/1, HEL
Cytomegalovirus [4] = assay: Antiviral activity against Cytomegalovirus AD169 infected in HEL cells; format: functional, organism-based; conditions: Human betaherpesvirus 5, AD169, HEL
Human alphaherpesvirus 3 = assay: Antiviral activity against TK-deficient Varicella-zoster virus infected in HEL cells; format: functional, organism-based; conditions: Human alphaherpesvirus 3, HEL
Isoleucine--tRNA ligase = Isoleucine--tRNA ligase (Escherichia coli K-12, UniProt P00956); assay: Inhibition of Escherichia coli isoleucyl-tRNA synthetase assessed as decrease in [3H]isoleucyl-tRNA generation
Chain of Isoleucine--tRNA ligase (P00956 whole entry): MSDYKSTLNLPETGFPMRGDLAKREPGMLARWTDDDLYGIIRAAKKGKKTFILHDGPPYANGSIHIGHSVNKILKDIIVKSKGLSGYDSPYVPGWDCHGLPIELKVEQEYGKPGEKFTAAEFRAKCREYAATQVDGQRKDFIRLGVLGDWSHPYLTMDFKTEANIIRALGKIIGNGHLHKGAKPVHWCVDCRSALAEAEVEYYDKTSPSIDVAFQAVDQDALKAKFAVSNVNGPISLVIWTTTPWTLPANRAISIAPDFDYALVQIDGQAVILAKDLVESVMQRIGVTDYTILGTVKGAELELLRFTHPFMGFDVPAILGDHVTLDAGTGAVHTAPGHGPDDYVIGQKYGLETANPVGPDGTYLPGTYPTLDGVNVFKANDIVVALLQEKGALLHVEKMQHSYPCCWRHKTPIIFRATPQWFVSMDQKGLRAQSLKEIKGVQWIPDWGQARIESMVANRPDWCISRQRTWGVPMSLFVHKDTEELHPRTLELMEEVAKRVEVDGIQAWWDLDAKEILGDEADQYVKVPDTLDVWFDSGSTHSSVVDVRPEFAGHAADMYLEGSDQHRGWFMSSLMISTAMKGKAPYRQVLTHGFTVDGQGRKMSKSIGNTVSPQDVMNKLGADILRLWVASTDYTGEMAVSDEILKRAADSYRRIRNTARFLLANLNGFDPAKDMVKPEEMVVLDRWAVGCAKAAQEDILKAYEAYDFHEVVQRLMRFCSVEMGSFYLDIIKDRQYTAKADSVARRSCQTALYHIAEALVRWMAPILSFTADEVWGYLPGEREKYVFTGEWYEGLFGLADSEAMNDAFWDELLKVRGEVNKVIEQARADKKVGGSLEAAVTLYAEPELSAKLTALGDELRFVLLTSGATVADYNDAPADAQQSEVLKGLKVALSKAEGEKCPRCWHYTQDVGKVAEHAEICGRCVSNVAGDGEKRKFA

Cytomegalovirus [5] = assay: Antiviral activity against Cytomegalovirus AD169 infected in HEL cells assessed as inhibition of viral plaque formation; format: functional, organism-based; conditions: Human betaherpesvirus 5, AD169, HEL
Cytomegalovirus [6] = assay: Antiviral activity against Cytomegalovirus Davis infected in HEL cells assessed as inhibition of virus plaque formation; format: functional, organism-based; conditions: Human betaherpesvirus 5, Davis
[7] = biological target: T1, Inosine-uridine preferring nucleoside hydrolase (Crithidia fasciculata, UniProt Q27546); assay: Inhibition of Crithidia fasciculata inosine-uridine nucleoside hydrolase expressed in Escherichia coli using p-nitrophenyl beta-D-ribofuranoside as substrate by xanthine oxidase coupled enzyme assay
T1 sequence (Q27546 whole entry): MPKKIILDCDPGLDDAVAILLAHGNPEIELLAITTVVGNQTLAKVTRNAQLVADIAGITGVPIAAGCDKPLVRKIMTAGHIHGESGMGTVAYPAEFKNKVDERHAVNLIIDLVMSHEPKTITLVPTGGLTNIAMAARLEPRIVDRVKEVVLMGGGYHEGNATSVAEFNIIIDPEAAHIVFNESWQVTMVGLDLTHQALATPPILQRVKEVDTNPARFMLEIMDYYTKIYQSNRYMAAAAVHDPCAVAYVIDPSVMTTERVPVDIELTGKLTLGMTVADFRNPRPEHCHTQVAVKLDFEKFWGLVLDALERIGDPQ

[8] = biological target: T2, Inosine-adenosine-guanosine-nucleoside hydrolase (Trypanosoma brucei brucei, UniProt O15727); assay: Inhibition of Trypanosoma brucei brucei inosine-adenosine-guanosine nucleoside hydrolase expressed in Escherichia coli
T2 sequence (O15727 whole entry): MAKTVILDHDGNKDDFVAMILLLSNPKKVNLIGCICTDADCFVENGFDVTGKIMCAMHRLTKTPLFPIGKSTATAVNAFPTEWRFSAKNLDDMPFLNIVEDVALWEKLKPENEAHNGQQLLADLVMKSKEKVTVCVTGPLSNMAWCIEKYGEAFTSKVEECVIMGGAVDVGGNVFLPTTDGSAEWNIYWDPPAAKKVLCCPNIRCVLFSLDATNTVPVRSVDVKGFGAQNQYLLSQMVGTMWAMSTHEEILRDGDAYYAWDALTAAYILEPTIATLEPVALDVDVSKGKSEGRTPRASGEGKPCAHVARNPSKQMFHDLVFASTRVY

Hepatitis C virus = assay: Antiviral activity against Hepatitis C virus; format: functional, organism-based, Hepacivirus hominis
[9] = Antiproliferative activity against mouse L1210/0 cells after 48 hrs by trypan blue staining method; format: functional, cell-based; conditions: L1210/0, 48 h
[10] = Antiproliferative activity against human Molt4/C8 cells; format: functional, cell-based; conditions: MOLT-4
[11] = Antiproliferative activity against mouse L1210/0 cells; format: functional, cell-based
[12] = test system: Human immunodeficiency virus 2; assay: Antiviral activity against HIV2; format: functional, organism-based
[13] = test system: Human immunodeficiency virus 1; assay: Antiviral activity against HIV1; format: functional, organism-based
[14] = Antiproliferative activity against human CEM/0 cells; format: functional, cell-based; conditions: CCRF-CEM

## CSCC[C@H](N)C(=O)OC[C@H]1O[C@@H](Cn2cnc3c(N)ncnc32)[C@H](O)[C@@H]1O
[1]
  IC50: 3.6 µM

## CC(C)Nc1ncnc2c1ncn2C[C@@H]1C[C@H](CO)c2ccccc21
[2]
  IC50: 24 µg/mL (≈ 71.1 µM)
MOLT-4
  IC50: 24 µg/mL (≈ 71.1 µM)
CCRF-CEM
  IC50: 24 µg/mL (≈ 71.1 µM)

## Cc1cn(C[C@@H]2C[C@H](CO)c3ccccc32)c(=O)[nH]c1=O
[2]
  IC50: 81 µg/mL (≈ 283 µM)
MOLT-4
  IC50: 81 µg/mL (≈ 283 µM)
CCRF-CEM
  IC50: 81 µg/mL (≈ 283 µM)

## Nc1ncnc2c1ncn2C[C@H]1C[C@H](OCc2ccccc2)[C@@H](COCc2ccccc2)O1
Influenza A virus
  IC50: 39.9 µg/mL (≈ 89.6 µM)

## CC(C)(C)[Si](OC[C@H]1C[C@@H](Cn2cnc3c(N)ncnc32)c2cn(Cc3ccccc3)nc21)(c1ccccc1)c1ccccc1
Cytomegalovirus [3]
  EC50: 0.5 µM
Cytomegalovirus [4]
  EC50: 0.5 µM
Human alphaherpesvirus 3
  EC50: 1.5 µM

## Cn1ncc2c1[C@H](Cn1ccc(=O)[nH]c1=O)C[C@@H]2CO[Si](c1ccccc1)(c1ccccc1)C(C)(C)C
[2]
  IC50: 3.2 µg/mL (≈ 6.22 µM)
MOLT-4
  IC50: 3.2 µg/mL (≈ 6.22 µM)
CCRF-CEM
  IC50: 3.2 µg/mL (≈ 6.22 µM)

## CC[C@H](C)[C@H](N)C(=O)OC[C@H]1O[C@@H](Cn2cnc3c(N)ncnc32)[C@H](O)[C@@H]1O
Isoleucine--tRNA ligase
  IC50: > 128 µM

## Nc1nc(Cl)c2ncn(C[C@H]3CCC[C@H]3CO)c2n1
Cytomegalovirus [5]
  IC50: > 5 µg/mL
Cytomegalovirus [6]
  IC50: > 5 µg/mL

## Nc1ncnc2c1N=CC2[C@@H]1N[C@H](CO)[C@@H](O)[C@H]1O (stereo not given in full)
[7]
  Ki: 0.007 µM
[8]
  Ki: 0.003 µM

## CSCC[C@H](N)C(=O)OC[C@H]1O[C@@H](n2cnc3c(N)ncnc32)[C@H](O)[C@@H]1O
[1]
  IC50: 5 µM

## O=C(OCC12C=CC(O1)c1cc3ccccc3cc12)c1ccccc1 (stereo not given)
Hepatitis C virus
  EC50: 6.31 µM

## CC1(C)[C@@H](Cn2cnc3c(NC4CC4)nc(N)nc32)CC[C@@]1(C)CO
[9]
  IC50: 13.9 µg/mL

## O=c1[nH]c(=O)n([C@H]2CC[C@@H](CO)C2)cc1I
[10]
  IC50: 73 µg/mL (≈ 217 µM)
[11]
  IC50: 73 µg/mL (≈ 217 µM)

## CSCC[C@H](N)C(=O)N(O)C[C@H]1O[C@@H](Cn2cnc3c(N)ncnc32)[C@H](O)[C@@H]1O
[1]
  IC50: 3.6 µM

## CC1(C)[C@@H](Cn2cnc3c(Cl)nc(N)nc32)CC[C@@]1(C)CO
[12]
  EC50: 4 µg/mL (≈ 12.4 µM)
[10]
  IC50: 13.2 µg/mL (≈ 40.8 µM)
[11]
  IC50: 16.2 µg/mL (≈ 50 µM)
[13]
  EC50: 4 µg/mL (≈ 12.4 µM)

## CC1(C)[C@@H](Cn2cnc3c(N)nc(N)nc32)CC[C@@]1(C)CO
[12]
  EC50: 4 µg/mL (≈ 13.1 µM)
[13]
  EC50: 4 µg/mL (≈ 13.1 µM)

## CSCC[C@H](N)C(=O)OC[C@H]1O[C@@H](Cn2cnc3c(NCc4ccccc4)ncnc32)[C@H](O)[C@@H]1O
[1]
  IC50: 3.6 µM

## CSCC[C@H](N)C(=O)OC[C@H]1O[C@@H](CCn2cnc3c(N)ncnc32)[C@H](O)[C@@H]1O
[1]
  IC50: 8.3 µM

## O[C@H]1C[C@@]2(Cn3cnc4c(Cl)ncnc43)O[C@@H]1c1ccccc12
Hepatitis C virus
  EC50: 45.1 µM

## OCC1CCCC1n1cnc2c(Cl)ncnc21 (stereo not given)
[10]
  IC50: 19 µg/mL (≈ 75.2 µM)
[14]
  IC50: 19 µg/mL (≈ 75.2 µM)
[11]
  IC50: 19 µg/mL (≈ 75.2 µM)

## Cn1ncc2c1[C@H](Cn1cnc3c(Cl)nc(N)nc31)C[C@@H]2CO
[2]
  IC50: 3.2 µg/mL (≈ 9.59 µM)
MOLT-4
  IC50: 3.2 µg/mL (≈ 9.59 µM)
CCRF-CEM
  IC50: 3.2 µg/mL (≈ 9.59 µM)

## OC[C@H]1C[C@@H](Cn2cnc3c(O)ncnc32)c2ccccc21
[2]
  IC50: 24 µg/mL (≈ 81 µM)
MOLT-4
  IC50: 24 µg/mL (≈ 81 µM)
CCRF-CEM
  IC50: 24 µg/mL (≈ 81 µM)

## OC[C@@H]1C=C[C@H](Cn2cnc3c(O)ncnc32)C1
[9]
  IC50: > 200 µM

## OC[C@H]1C[C@@H](Cn2cnc3c(-c4ccc(Cl)cc4)ncnc32)c2ccccc21
[2]
  IC50: 0.63 µg/mL (≈ 1.61 µM)
MOLT-4
  IC50: 0.63 µg/mL (≈ 1.61 µM)
CCRF-CEM
  IC50: 0.63 µg/mL (≈ 1.61 µM)

## Nc1ccn(C[C@H]2C[C@H](O)[C@@H](CO)O2)c(=O)n1
Influenza A virus
  IC50: 67.3 µg/mL (≈ 279 µM)

## COc1ncnc2c1ncn2C[C@@H]1C[C@H](CO)c2ccccc21
[2]
  IC50: 24 µg/mL (≈ 77.3 µM)
MOLT-4
  IC50: 24 µg/mL (≈ 77.3 µM)
CCRF-CEM
  IC50: 24 µg/mL (≈ 77.3 µM)

## O=c1[nH]cnc2c1ncn2C[C@H]1C[C@H](OCc2ccccc2)[C@@H](COCc2ccccc2)O1
Influenza A virus
  IC50: 24.3 µg/mL (≈ 54.4 µM)

## OC[C@H]1N[C@@H](Cn2cnc3c(O)ncnc32)[C@H](O)[C@@H]1O
[7]
  Ki: 5.4 µM
[8]
  Ki: 3.6 µM

## O=c1[nH]cnc2c1ncn2C[C@H]1C[C@H](O)[C@@H](CO)O1
Influenza A virus
  IC50: 25.2 µg/mL (≈ 94.6 µM)
